Test results from ChEMBL document CHEMBL5154688, “Design, Synthesis, and Characterization of I-BET567, a Pan-Bromodomain and Extra Terminal (BET) Bromodomain Oral Candidate” (J Med Chem, 2022).
The source made the active and inactive calls. The calls are words filed in the database; no cut-off is given here.

Legend:
[1] = target: Voltage-gated inwardly rectifying potassium channel KCNH2 (Homo sapiens, UniProt Q12809); assay: Inhibition of hERG; format: toxicity
[2] = Unbound fraction in Beagle dog blood at 3 mg/kg, po or 1.0 mg/kg, iv by LC-MS/MS analysis; format: ADME, organism-based, Canis lupus familiaris
[3] = Antineoplastic activity against human NMC 11060 cells xenografted in SCID mouse assessed as reduction in tumor volume at 10 mg/kg, po for 20 days measured at 8 days of post randomization relative to control; format: functional; details: NMC 11060 cell, 480 h, time 20 day
[4] = target: T1, Bromodomain-containing protein 4 (Homo sapiens, UniProt O60885); assay: Binding affinity to BRD4 BD2 (unknown origin) assessed as dissociation constant
[5] = Cmax in KLH-TNP-induced T-cell dependent immunization CD-1 mouse model at 30 mg/kg, po administered daily for 14 days; format: ADME, organism-based; set-up: time 14 day, dose 30 mg/kg, route po; details: in vivo
[6] = Oral bioavailability in Wistar Han rat blood at 3 mg/kg measured upto 24 hrs by LC-MS/MS analysis; format: ADME, organism-based
[7] = Antineoplastic activity against human NMC 11060 cells xenografted in SCID mouse assessed as reduction in tumor volume at 3 to 30 mg/kg, po for 20 days; format: functional, NUT midline carcinoma; set-up: scale not given: the % may be the effect or the level left; details: dose 3-30 mg/kg, time 20 day
[8] = Oral bioavailability in Beagle dog blood at 3 mg/kg by LC-MS/MS analysis; format: ADME, organism-based, Canis lupus familiaris
[9] = Volume of distribution at steady state in Beagle dog blood at 3 mg/kg, po or 1.0 mg/kg, iv by LC-MS/MS analysis; format: ADME, organism-based, Canis lupus familiaris; details: in vivo
[10] = Antineoplastic activity against human NMC 11060 cells xenografted in SCID mouse assessed as reduction in tumor volume at 30 mg/kg, po for 20 days measured at 13 days of post randomization relative to control; format: functional; details: NMC 11060 cell, 480 h, time 20 day
[11] = Intrinsic clearance in rat hepatocytes after 60 mins by LC-MS/MS analysis; format: ADME, cell-based, Hepatocyte; details: 1 h
[12] = Antineoplastic activity against human NMC 11060 cells xenografted in SCID mouse assessed as reduction in tumor volume at 30 mg/kg, po for 20 days measured at 8 days of post randomization relative to control; format: functional; details: NMC 11060 cell, 480 h, time 20 day
[13] = Antiproliferative activity against human NMC 11060 cells assessed as inhibition of proliferation; format: functional, cell-based; details: NUT midline carcinoma
NUT midline carcinoma = assay: Antineoplastic activity against human NMC 11060 cells xenografted in SCID mouse assessed as reduction in tumor growth at 3 to 30 mg/kg, po for 20 days; format: functional, organism-based; details: dose 3-30 mg/kg, time 20.0 day
[14] = Unbound volume of distribution at steady state in Beagle dog blood at 3 mg/kg, po or 1.0 mg/kg, iv by LC-MS/MS analysis; format: ADME, organism-based, Canis lupus familiaris; details: in vivo
[15] = AUC(0 to 72 hrs) in KLH-TNP-induced T-cell dependent immunization CD-1 mouse model at 30 mg/kg, po administered every third day for 14 days; format: ADME, organism-based; set-up: dose 30 mg/kg, time 14 day, route po; details: in vivo
[16] = Renal clearance in Wistar Han rat assessed as ratio/proportion of renal elimination to total clearance at 3 mg/kg, po or 1.3 mg/kg, iv measured upto 24 hrs by LC-MS/MS analysis; format: ADME, organism-based; details: in vivo
[17] = Unbound Cmax in SCID mouse xenografted with human NMC 11060 cells at 3 to 30 mg/kg, po for 20 days; format: ADME, organism-based; details: in vivo, 480 h, dose 3-30 mg/kg, time 20 day
[18] = Antineoplastic activity against human NMC 11060 cells xenografted in SCID mouse assessed as reduction in tumor volume at 30 mg/kg, po for 20 days measured at 20 days of post randomization relative to control; format: functional; details: NMC 11060 cell, 480 h, time 20 day
[19] = target: T1, Bromodomain-containing protein 4; assay: Inhibition of BRD4 BD1 (unknown origin) incubated for 30 mins in presence of fluorescent ligand by TR-FRET method
[20] = Cmax in KLH-TNP-induced T-cell dependent immunization CD-1 mouse model at 30 mg/kg, po administered every other day for 14 days; format: ADME, organism-based; set-up: dose 30 mg/kg, time 14 day, route po; details: in vivo
[21] = AUC(0 to 72 hrs) in KLH-TNP-induced T-cell dependent immunization CD-1 mouse model at 30 mg/kg, po administered daily for 14 days; format: ADME, organism-based; set-up: dose 30 mg/kg, time 14 day, route po; details: in vivo
[22] = Antineoplastic activity against human NMC 11060 cells xenografted in SCID mouse assessed as reduction in tumor volume at 10 mg/kg, po for 20 days measured at 17 days of post randomization relative to control; format: functional; details: NMC 11060 cell, 480 h, time 20 day
[23] = Terminal half life in Beagle dog blood at 3 mg/kg, po or 1.0 mg/kg, iv by LC-MS/MS analysis; format: ADME, organism-based, Canis lupus familiaris; details: read-out: beta t1/2 (converted)
Mus musculus [24] = assay: Antiinflammatory activity in KLH-TNP-induced T-cell dependent immunization CD-1 mouse model assessed as reduction in circulating IgG1 at 30 mg/kg, po administered every other day for 14 days followed by administration of KLH-TNP after 1 hr; format: functional; details: CD-1, T-cell, 336 h, time 14 day
[25] = target: Histone acetyltransferase p300 (Homo sapiens, UniProt Q09472); assay: Binding affinity to EP300 (unknown origin) assessed as dissociation constant
[26] = target: T1, Bromodomain-containing protein 4; assay: Inhibition of BRD4 BD2 (unknown origin) incubated for 30 mins in presence of fluorescent ligand by TR-FRET method
[27] = Toxicity in SCID mouse xenografted with human NMC 11060 cells assessed as tolerability at 3 to 30 mg/kg, po for 20 days; format: organism-based; details: in vivo, 480 h, dose 3-30 mg/kg, time 20 day
Mus musculus [28] = assay: Antiinflammatory activity in KLH-TNP-induced T-cell dependent immunization CD-1 mouse model assessed as reduction in circulating IgG1 at 30 mg/kg, po administered daily for 14 days followed by administration of KLH-TNP after 1 hr; format: functional; details: CD-1, T-cell, 336 h, time 14 day
[29] = Toxicity in KLH-TNP-induced T-cell dependent immunization CD-1 mouse model assessed as tolerability at 30 mg/kg, po administered daily for 14 days; format: organism-based; details: in vivo, 336 h, time 14 day
[30] = Volume of distribution at steady state in Wistar Han rat blood at 3 mg/kg, po or 1.3 mg/kg, iv measured upto 24 hrs by LC-MS/MS analysis; format: ADME, organism-based; details: in vivo
[31] = Antineoplastic activity against human NMC 11060 cells xenografted in SCID mouse assessed as reduction in tumor volume at 10 mg/kg, po for 20 days measured at 6 days of post randomization relative to control; format: functional; details: NMC 11060 cell, 480 h, time 20 day
[32] = Antineoplastic activity against human NMC 11060 cells xenografted in SCID mouse assessed as reduction in tumor volume at 30 mg/kg, po for 20 days measured at 17 days of post randomization relative to control; format: functional; details: NMC 11060 cell, 480 h, time 20 day
CREB-binding protein = CREB-binding protein (Homo sapiens, UniProt Q92793); assay: Binding affinity to CREBBP (unknown origin) assessed as dissociation constant
[33] = Renal clearance in Beagle dog assessed as ratio/proportion of renal elimination to total clearance at 3 mg/kg, po or 1 mg/kg, iv by LC-MS/MS analysis; format: ADME, organism-based, Canis lupus familiaris; details: in vivo
[34] = Antineoplastic activity against human NMC 11060 cells xenografted in SCID mouse assessed as reduction in tumor volume at 30 mg/kg, po for 20 days measured at 3 days of post randomization relative to control; format: functional; details: NMC 11060 cell, 480 h, time 20 day

Voltage-gated inwardly rectifying potassium channel KCNH2, sequence (Q12809 whole entry): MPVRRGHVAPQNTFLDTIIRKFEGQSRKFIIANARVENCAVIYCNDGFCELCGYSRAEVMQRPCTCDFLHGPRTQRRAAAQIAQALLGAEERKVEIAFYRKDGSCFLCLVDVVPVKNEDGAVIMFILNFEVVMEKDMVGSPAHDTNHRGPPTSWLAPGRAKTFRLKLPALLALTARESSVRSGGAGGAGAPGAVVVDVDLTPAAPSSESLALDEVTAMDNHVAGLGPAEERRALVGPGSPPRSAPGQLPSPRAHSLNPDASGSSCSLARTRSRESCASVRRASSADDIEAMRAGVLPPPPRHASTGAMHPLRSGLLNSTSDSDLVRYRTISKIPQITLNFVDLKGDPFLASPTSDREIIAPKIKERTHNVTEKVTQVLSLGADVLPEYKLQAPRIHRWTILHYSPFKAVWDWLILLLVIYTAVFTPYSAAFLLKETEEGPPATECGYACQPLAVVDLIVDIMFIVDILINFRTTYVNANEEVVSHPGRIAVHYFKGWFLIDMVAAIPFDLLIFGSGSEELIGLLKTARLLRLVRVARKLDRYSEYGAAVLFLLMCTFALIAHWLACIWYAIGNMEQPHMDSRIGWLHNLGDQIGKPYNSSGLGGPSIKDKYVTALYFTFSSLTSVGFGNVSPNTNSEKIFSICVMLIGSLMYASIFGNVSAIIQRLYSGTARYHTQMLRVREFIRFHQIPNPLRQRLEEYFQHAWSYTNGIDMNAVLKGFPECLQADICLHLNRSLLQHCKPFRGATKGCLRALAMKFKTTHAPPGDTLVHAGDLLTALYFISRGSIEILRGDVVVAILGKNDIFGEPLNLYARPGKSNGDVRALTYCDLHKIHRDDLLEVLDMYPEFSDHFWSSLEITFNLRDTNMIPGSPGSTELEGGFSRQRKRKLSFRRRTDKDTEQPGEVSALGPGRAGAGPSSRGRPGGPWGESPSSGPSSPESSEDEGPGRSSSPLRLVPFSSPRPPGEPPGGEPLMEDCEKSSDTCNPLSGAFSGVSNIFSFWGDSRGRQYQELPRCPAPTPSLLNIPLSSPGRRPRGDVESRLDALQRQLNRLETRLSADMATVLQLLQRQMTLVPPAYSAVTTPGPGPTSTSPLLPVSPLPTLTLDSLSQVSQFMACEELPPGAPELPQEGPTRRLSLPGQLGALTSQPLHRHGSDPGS
CREB-binding protein, sequence (Q92793 whole entry): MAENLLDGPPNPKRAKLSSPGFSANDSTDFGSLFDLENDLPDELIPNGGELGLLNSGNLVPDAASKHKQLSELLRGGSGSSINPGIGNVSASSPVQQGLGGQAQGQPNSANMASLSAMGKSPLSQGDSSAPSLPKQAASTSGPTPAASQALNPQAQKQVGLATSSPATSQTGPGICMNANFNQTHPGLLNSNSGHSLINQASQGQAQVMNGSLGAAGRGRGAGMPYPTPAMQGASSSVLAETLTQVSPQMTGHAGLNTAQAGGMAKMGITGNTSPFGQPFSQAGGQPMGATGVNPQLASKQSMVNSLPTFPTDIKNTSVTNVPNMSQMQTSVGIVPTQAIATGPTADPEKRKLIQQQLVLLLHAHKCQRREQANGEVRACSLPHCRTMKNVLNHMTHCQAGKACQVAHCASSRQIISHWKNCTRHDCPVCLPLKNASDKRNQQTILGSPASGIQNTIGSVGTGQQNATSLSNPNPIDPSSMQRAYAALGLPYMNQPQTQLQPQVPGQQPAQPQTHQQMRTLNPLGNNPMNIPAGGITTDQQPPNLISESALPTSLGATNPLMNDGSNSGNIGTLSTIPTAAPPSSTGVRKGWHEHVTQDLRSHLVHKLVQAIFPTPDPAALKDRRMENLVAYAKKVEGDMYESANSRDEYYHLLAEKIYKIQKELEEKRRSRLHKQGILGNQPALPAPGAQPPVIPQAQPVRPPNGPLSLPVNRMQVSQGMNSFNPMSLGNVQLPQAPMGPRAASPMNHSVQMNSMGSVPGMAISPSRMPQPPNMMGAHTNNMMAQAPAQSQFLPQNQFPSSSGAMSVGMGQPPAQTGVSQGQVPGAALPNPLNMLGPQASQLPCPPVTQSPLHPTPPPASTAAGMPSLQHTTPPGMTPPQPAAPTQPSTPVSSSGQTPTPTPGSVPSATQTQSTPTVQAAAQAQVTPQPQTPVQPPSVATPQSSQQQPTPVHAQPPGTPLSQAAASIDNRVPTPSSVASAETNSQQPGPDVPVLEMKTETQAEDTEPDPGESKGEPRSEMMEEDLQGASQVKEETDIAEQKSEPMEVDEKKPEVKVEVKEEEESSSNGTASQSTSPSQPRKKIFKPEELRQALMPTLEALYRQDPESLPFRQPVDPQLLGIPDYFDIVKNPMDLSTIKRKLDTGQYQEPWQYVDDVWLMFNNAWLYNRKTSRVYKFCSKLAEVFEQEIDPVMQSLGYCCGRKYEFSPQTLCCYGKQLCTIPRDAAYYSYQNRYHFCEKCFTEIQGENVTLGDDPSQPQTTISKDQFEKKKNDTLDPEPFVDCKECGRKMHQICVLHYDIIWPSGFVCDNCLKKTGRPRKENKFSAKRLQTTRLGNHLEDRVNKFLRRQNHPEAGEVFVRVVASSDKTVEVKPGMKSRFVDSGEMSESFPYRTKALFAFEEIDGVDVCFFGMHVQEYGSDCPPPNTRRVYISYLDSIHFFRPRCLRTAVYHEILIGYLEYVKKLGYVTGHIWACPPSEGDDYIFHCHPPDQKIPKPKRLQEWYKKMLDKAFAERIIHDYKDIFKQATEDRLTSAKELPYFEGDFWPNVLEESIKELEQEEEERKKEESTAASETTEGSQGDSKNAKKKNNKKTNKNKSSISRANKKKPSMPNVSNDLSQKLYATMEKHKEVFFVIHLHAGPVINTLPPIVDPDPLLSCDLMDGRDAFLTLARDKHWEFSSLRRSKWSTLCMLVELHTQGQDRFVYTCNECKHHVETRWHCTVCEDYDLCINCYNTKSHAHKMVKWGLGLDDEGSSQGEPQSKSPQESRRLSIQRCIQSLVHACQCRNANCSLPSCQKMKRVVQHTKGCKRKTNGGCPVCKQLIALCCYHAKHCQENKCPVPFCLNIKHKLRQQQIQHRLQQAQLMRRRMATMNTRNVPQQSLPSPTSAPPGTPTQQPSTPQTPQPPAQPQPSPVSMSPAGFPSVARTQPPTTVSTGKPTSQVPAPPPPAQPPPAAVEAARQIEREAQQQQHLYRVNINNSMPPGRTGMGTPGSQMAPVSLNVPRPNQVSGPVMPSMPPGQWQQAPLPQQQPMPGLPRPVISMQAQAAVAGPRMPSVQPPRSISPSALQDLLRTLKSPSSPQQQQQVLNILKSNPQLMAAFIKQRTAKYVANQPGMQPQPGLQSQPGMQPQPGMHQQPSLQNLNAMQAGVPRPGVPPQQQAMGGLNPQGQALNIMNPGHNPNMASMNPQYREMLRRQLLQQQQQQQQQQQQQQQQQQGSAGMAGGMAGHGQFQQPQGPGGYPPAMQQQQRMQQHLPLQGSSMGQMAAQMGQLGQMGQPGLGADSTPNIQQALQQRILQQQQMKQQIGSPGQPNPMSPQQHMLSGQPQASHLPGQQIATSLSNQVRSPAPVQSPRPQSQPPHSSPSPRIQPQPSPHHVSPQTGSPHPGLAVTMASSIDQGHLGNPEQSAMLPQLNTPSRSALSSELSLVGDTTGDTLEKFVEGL

`CC(=O)N1c2ccc(C(N)=O)cc2[C@H](Nc2ncc(Cl)cn2)C[C@@H]1C` gave an IC50 [1] of over 50100 nM, a fraction unbound [2] of 0.41 and an inhibition in vivo at 10 mg/kg [3] of 62%. For the same molecule, the Kd [4] was 5.01 nM, the Cmax [5] was 8.5 µM and the bioavailability [6] was 99%. The Activity [7] was over 50%, the bioavailability [8] was 98% and the Vdss [9] was 1.2 L/kg. It also gave an inhibition in vivo at 30 mg/kg [10] of 88%, a CLH [11] of under 0.8 mL/min/g and an inhibition in vivo at 30 mg/kg [12] of 85%. The IC50 [13] was 630 nM, the Activity (NUT midline carcinoma) was “Active” and the Vduss [14] was 2.9 L/kg. For the same molecule, the AUC at 336 h [15] was 34 µM·h, the Ratio [16] was 28% and the fCmax [17] was 2 µM. It also gave an inhibition in vivo at 30 mg/kg [18] of 93%, an IC50 [19] of 126 nM and a Cmax [20] of 8.5 µM. It also gave an AUC at 336 h [21] of 103 µM·h, an inhibition in vivo at 10 mg/kg [22] of 59% and a half-life [23] of 1.8 h. For the same molecule, the inhibition in vivo at 30 mg/kg (Mus musculus [24]) was 93%, the Kd [25] was 2510 nM and the IC50 [26] was 63.1 nM. For the same molecule, the Activity [27] was “Non-Toxic”, the inhibition in vivo at 30 mg/kg (Mus musculus [28]) was 98% and the Activity [29] was “Non-Toxic”. The Vdss [30] was 2.4 L/kg, the inhibition in vivo at 10 mg/kg [31] was 54% and the inhibition in vivo at 30 mg/kg [32] was 93%. For the same molecule, the Kd (CREB-binding protein) was 2510 nM, the Ratio [33] was 85% and the inhibition in vivo at 30 mg/kg [34] was 44%.
